row,Structure (SMILES),melting point [°C]
1,NC(=O)c1c(OCc2c(F)cc(Br)cc2F)nsc1NC(=O)NCCCCN1CCCC1,208
2,COc1c(C)c(=O)oc2cc(-c3ccc(C(C)C)cc3)ccc12,129
3,CC(=S)NCC1CN(c2ccc(NC=O)c(F)c2)C(=O)O1 (stereo not given),177 to 178
4,COc1ccc2[nH]c(-c3cccc(C)c3)cc(=O)c2c1,262 to 264
5,Cc1ccc2c(O)cc(=O)oc2c1,179 to 182
6,CC(=O)c1cccc(F)c1C(=O)O,76 to 81.5
7,CN1CCC(Oc2ccc(Cl)cc2)(c2ccccc2)C(O)C1 (stereo not given),164 to 165
8,O=C1NC(=O)C(Cc2ccc(NC(=O)c3cc(=O)c4cc(Br)ccc4o3)cc2)S1 (stereo not given),281 to 285
9,COc1cc(OC)nc(NC(=O)NS(=O)(=O)c2ccccc2-c2ccccn2)n1,175 to 176
10,Cc1cn2c(=O)c3c(Cl)cccc3nc2s1,235 to 236
11,Nc1cc(SC2=CCCCC2)ccc1[N+](=O)[O-],100 to 102
12,Cc1cc(CN2CCC(N(C)S(=O)(=O)c3ccc(Nc4nccc(Nc5ccc(F)c(F)c5)n4)cc3)CC2)no1,204 to 206
13,CS(=O)(=O)N1CCN(S(=O)(=O)c2ccc(-c3cccs3)cc2)[C@@H](C(=O)NOC2CCCCO2)C1 (stereo not given in full),194 to 195
14,O=C(NO)c1ccc2c(c1)CN(C(=O)c1ccc3ncccc3c1)C2,208 to 210
15,Cc1ccc(C=C(C#N)c2ccccc2)cc1,61
16,CCOC(=O)C(=C1CCCN1C)c1cc(OC)c(OC)c(OC)c1,115 to 116
17,CCOC(=O)C(=CNc1ccc2c(c1)N1CCN=C1S2)C(=O)OCC,140
18,COc1nc(-c2ccc(C(=O)O)cc2)cc2cccnc12,> 300
19,Nc1ccccc1Oc1ccccc1C(=O)O,150 to 151
20,CCOC(=O)c1cn(CC)c2cc(-c3cc(C)nc(C)c3)c(F)cc2c1=O,221 to 224
21,COC(=O)[C@H](Cc1ccc(NC(=O)c2c(Cl)cccc2Cl)cc1)NC(=O)c1ccc(C(=O)Nc2cccc(O)c2)cc1Cl,230 to 232
22,Cc1cc(O)c(C)c(C)c1OC(=O)C(C)(C)C,88 to 112
23,CC(=O)NC[C@H]1CN(c2ccc(N3CCC(n4cc(C#N)nn4)CC3)c(F)c2)C(=O)O1,148 to 150
24,COC(=O)CCCc1cc2cc(Cl)ccc2n1S(=O)(=O)c1ccc2nc(C)oc2c1,100 to 110
25,CCCCCCCCCCCCCCCCCCNC(=O)C=Cc1ccc(O)cc1,114

row,Structure (SMILES),melting point [°C]
1,COC(=O)c1cc2nccnc2cc1NC(=O)OC(C)(C)C,196 to 198
2,CC(=O)OC1CSC(Oc2ccc(-c3ccc(F)nc3)nc2)C(OC(C)=O)C1OC(C)=O (stereo not given),185
3,CS(=O)(=O)c1ccc(C(CC2CCCC2)C(=O)O)cc1Cl (stereo not given),124 to 126
4,CC1(C)CC(=O)c2cc(Br)ccc21,117 to 118
5,COc1cc(N)c(C(N)=O)c(OC)c1,117 to 119
6,CN(CCCNc1ncc(CCc2ccccc2)c(=O)[nH]1)c1ccccn1,134 to 136
7,Cc1cccc(Nc2ccc(Nc3ncnc4cc(-c5ccccc5)sc34)cc2)c1,170 to 171
8,CC(=O)Nc1cc2c(cc1[N+](=O)[O-])OC(C)(C)[C@@H](O)[C@@H]2NC(=O)CCCCl (relative stereo),178 to 180
9,O=[N+]([O-])c1cccc(N2N=C(O)c3ccccc3C2CCO)c1 (stereo not given),164 to 165
10,C#CC(CC(=O)O)c1ccc(OC)c(OC2CCCC2)c1 (racemic),101 to 102
11,C[Si](C)(C)c1ccc(Cl)s1,68 to 69
12,O=[N+]([O-])c1ccc(C2OCCc3cc4c(cc32)OCO4)cc1 (stereo not given),149 to 150
13,CCCOc1ccc(OC)cc1C(N)=O,83 to 87
14,CCOC(=O)C1=C(C)NC2(C)ON=C(C)C2C1c1ccccc1[N+](=O)[O-] (stereo not given),212
15,CC(C)N(CCC(CCN1CCCCC1)(C(N)=O)c1ccccc1Cl)Cc1ccccc1 (stereo not given),104 to 111
16,CNc1c(F)c(O)c2c(=O)c(C(=O)O)cn(-c3cc(N)c(F)cc3F)c2c1C,> 280
17,Cc1ccc(N2C(=O)C(O)=C(C(=O)c3ccc(C(C)C)cc3)C2c2ccc(Cl)cc2)nn1 (stereo not given),258 to 260
18,CCc1nc2c(cnn2CC)c(NC2CCOCC2)c1CNC(=O)c1cccc(C(=O)NCc2cc(Cl)cc(-c3cccc(CN4CC(C)NC(C)C4)c3)c2)c1 (stereo not given),112 to 114
19,CC(=O)N1C(C)(C)CC(Oc2nc(OC3CC(C)(C)N(O)C(C)(C)C3)nc(N3C(C)(C)CCCC3(C)C)n2)CC1(C)C,175 to 176
20,CC(C)(C)OC(=O)c1cc(N2CCOCC2)cc([N+](=O)[O-])c1,116 to 118
21,CCCCC1CCCC2=C1C(=O)c1ccccc1C2=O (stereo not given),64 to 65
22,CCCCCCCCCCCCCCCCCCOc1ccc(NC(=O)OC(C)(C)C)cc1,66 to 67
23,Cc1ccc(-c2cccc(/C=C/C(=O)Nc3ccc(CN4CCCC(O)C4)cc3)c2)cc1 (stereo not given),132 to 134
24,Oc1ccc(Oc2ccc(O)c(Br)c2)cc1Br,106
25,O=c1cccccc1N1CCN(c2cccc(C(F)(F)F)c2)CC1,112 to 114

row,Structure (SMILES),melting point [°C]
1,O=C(c1cccnc1)c1ccc([N+](=O)[O-])c(CO)c1,184
2,CC(=C(C#N)N=CN(C)C)N1CCCC1,49 to 53
3,COCCOc1cc2ncnc(NC3=CC(=O)C(Oc4cccnc4)=CC3=O)c2cc1OC,189 to 190
4,Cc1cc(C(=O)N(C2CCCCC2)C2CCCC2)ccc1Cn1cnc2ncccc21,191 to 192
5,CCOC(=O)CCNC(=O)n1nc(Oc2c(Cl)cc(C(F)(F)F)cc2Cl)cc1C,73 to 74
6,Clc1ccc(Cn2cc(C3(Cn4ccnc4)CCCC3)c3ccccc32)cc1,91 to 92
7,CC(C)(C)c1ccc2c(c1)C(=O)CCC2,101 to 102
8,CCOC(=O)c1cnoc1-c1ccc(F)c(Br)c1,111 to 112
9,O=[N+]([O-])c1ccc2[nH]c(/C=C/c3ccncc3)nc2c1,> 280
10,CCCCN1C(=O)CC(Sc2cc(C(C)(C)C)c(O)c(C(C)(C)C)c2)C1=O (stereo not given),80 to 85
11,C[C@@H]1NCC[C@@H]1C(C)(C)O,120 to 122
12,COC(=O)c1ccc(CSc2nnc(-c3ccc4c(c3)CCO4)o2)cc1,125 to 126
13,CCCCNS(=O)(=O)c1ccc(N2CCC3(CC2)OCCO3)cc1,122 to 124
14,CCCCCCCCCCCCc1ccc(S(=O)(=O)Cl)cc1,33 to 35
15,N#CC(=C(Nc1ccc2c(c1)OCO2)NC1CCC1)S(=O)(=O)c1ccc(Cl)cc1,190
16,CCOC(=O)C(C)(C)Oc1ccc(OCCn2c(=O)sc3cc(C(=NOC)c4cccc(Cl)c4)ccc32)cc1,93 to 98
17,CC(C)(C)OC(=O)N1CCC[C@H]1c1nc2c(C(F)(F)F)cccc2c(O)c1C(=O)Nc1nccs1,215
18,CCCCn1cc(C(=O)OCC)c(NC(=O)Nc2ccccc2)n1,118 to 120
19,Cn1c(=O)c2nc(-c3ccc(/C=C/C(=O)O)cc3)[nH]c2n(Cc2ccc(C#N)cc2)c1=O,> 350
20,CCOC(=O)C(NC(C)=O)(C(=O)OCC)c1ccc(Cl)cn1,89 to 90
21,Cc1ccc(-c2ccc3c(c2)C=C(C(=O)O)CO3)cc1,236 to 237
22,CC1=C(C(=O)OC(C)(C)C)C(c2ccccc2)C(C(=O)OC(C)(C)C)=C(C)N1,187 to 188
23,CN(c1cccc2cc(C(N)=O)[nH]c12)S(=O)(=O)c1ccccc1C(F)(F)F,223 to 224
24,O=c1[nH]c2ccc(C=C3c4ccc(F)cc4CCc4cc(F)ccc43)cc2[nH]1,257
25,CCOc1nn(Cc2ccc(OCc3nc(-c4ccccc4)oc3C)cc2)cc1CCC(=O)O,96 to 97

row,Structure (SMILES),melting point [°C]
1,CCN(CC)CCNC(=O)c1cccc2c(=O)c3cc(I)ccc3[nH]c12,140 to 142
2,COCn1nccc1C(=O)c1cc2c(c(Cl)c1Cl)OC(C(=O)O)O2 (stereo not given),168 to 170
3,CS(=O)(=O)c1ccc(-n2cnc(Cl)c2-c2ccccc2)cc1,145 to 146
4,NS(=O)(=O)CCNC(=O)OCc1ccccc1,107 to 109
5,Nc1ccccc1C(=O)NN1CCOCC1,172
6,Cc1nn(CCOc2ccc(C=O)cc2)c(=O)c2ccccc12,90
7,NS(=O)(=O)c1ccc([C@H]2[C@H](C(=O)Nc3ccc(C(F)(F)F)cc3Cl)C23CCCC3)cc1 (relative stereo),111 to 113
8,N#CNC(=N)NCCN1CCC(C2(c3ccc(F)cc3)OCCO2)CC1,161 to 163
9,CC(=O)Nc1cc(C(C)=O)ccc1OCCCN1CCC(c2noc3cc(F)ccc23)CC1,108 to 110
10,C=Cc1cc(O)cc2cc(-c3ccc(O)cc3)oc12,182 to 184
11,CCCCCNc1ncnc2c(C)n[nH]c12,158
12,Cc1cc(-c2ccc(C(F)(F)F)cc2)nc2c(-c3nc(-c4ccc(S(N)(=O)=O)s4)no3)cnn12,276
13,Cc1c(NC(=O)OCCCl)cc([N+](=O)[O-])c(N)c1C,151
14,CCCOc1ccc(C(N)=O)cc1-c1ccc(C#N)c(=O)[nH]1,246 to 247
15,CCCNCc1cccc(OCCCNc2nc(N)nn2C)c1,79 to 81
16,Cn1ncc(C(=O)N2CCOCC2)c1C(=O)Nc1cc2nc(-c3ccccc3)nn2cc1F,224 to 225
17,CCOC(OCC)c1c(C#N)cnn1-c1cc(SC)n(C)n1,154 to 158
18,C#CC1(Oc2ccc(F)cc2N)CCN(C(=O)Oc2ccccc2)CC1,125 to 127
19,CCCCc1nc2c(O)ccc(CCN(C)C)c2[nH]1,97 to 105
20,CC(C)c1ccc2nc(Cl)cn2n1,69 to 71
21,CCNC(=O)c1sc(N2CCN(Cc3ccc(OC(F)(F)F)cc3)C2=O)nc1C,139 to 140
22,COC(=O)c1ccc2nc3c(c(C)nn3-c3ccccn3)c(Cl)c2c1,199 to 200
23,COc1cc2cnnc(N3CCCC(CO)C3)c2cc1OC (stereo not given),162 to 165
24,Cc1cc(Oc2c(F)cc(C(F)(F)F)cc2Cl)nn1C(N)=O,132 to 135
25,Cc1ccccc1C1(n2ccnc2)c2ccccc2-c2sccc21 (stereo not given),75

# From a melting point compilation (Tetko et al.; mined from patent text by program, amines drawn as free bases though some values may be those of a salt)
